The source of these data is patent US11208400B2, “Substituted 6-(1H-pyrazol-1-yl)pyrimidin-4-amine derivatives and uses thereof” (Bayer Aktiengesellschaft, priority 2016, dated 2021).

This test concerns the target T1, human Npt2a (Homo sapiens, UniProt Q06495).
T1 construct: expressed in transfected cells
T1 sequence (Q06495 1-639): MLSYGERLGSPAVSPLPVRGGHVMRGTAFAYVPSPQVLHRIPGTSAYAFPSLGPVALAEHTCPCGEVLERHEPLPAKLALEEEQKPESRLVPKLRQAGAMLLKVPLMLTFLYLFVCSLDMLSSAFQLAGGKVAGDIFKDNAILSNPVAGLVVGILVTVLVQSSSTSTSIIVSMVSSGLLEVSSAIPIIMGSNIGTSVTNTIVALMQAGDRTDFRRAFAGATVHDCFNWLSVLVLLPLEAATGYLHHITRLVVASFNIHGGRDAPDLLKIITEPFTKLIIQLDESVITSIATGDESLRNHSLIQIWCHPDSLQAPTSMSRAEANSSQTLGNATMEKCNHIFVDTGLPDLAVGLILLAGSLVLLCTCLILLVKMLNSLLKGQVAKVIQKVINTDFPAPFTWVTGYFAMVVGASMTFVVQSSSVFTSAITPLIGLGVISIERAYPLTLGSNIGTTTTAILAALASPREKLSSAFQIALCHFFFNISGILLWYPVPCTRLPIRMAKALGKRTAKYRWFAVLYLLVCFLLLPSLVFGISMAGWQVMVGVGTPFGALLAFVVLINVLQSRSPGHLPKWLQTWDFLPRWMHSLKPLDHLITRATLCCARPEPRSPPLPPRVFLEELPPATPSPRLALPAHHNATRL
The test can be described thus: Npt2a activity cell based assay, membrane potential dye, CHO T-REx hNpt2a cells. The following applies: doxycycline-induced, depolarization by sodium phosphate influx, average or median values if tested more than once. In short, it runs like this: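 Doxycycline-induced (0.5 μg/mL, 24 h) CHO T-REx cells were loaded with membrane potential dye in sodium-free NHE buffer (pH 7.4) and exposed to compound (50 μM–1 nM, 5 min, room temperature).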
A word on the IC50: it is the midpoint of a concentration-inhibition curve. The low end stands for greater potency in that assay, the high end for weaker potency in that assay. In the case of `Cc1cc(C)n(-c2cc(Nc3c(Cl)c(-c4ccc(F)cc4)nn3CC3CC3)ncn2)n1` [Example 187, N-[4-chloro-1-(cyclopropylmethyl)-3-(4-fluorophenyl)-1H-pyrazol-5-yl]-6-(3,5-dimethyl-1H-pyrazol-1-yl)pyrimidin-4-amine], it took 10 nM to reach half-maximal inhibition (IC50). Regarding `CCc1c(Nc2cc(-n3nc(C)c(C(C)(C)O)c3C)ncn2)nn(CC2CC2)c1-c1ccc(F)cc1` [Example 188, 2-[1-(6-{[1-(cyclopropylmethyl)-4-ethyl-5-(4-fluorophenyl)-1H-pyrazol-3-yl]amino}pyrimidin-4-yl)-3,5-dimethyl-1H-pyrazol-4-yl]propan-2-ol], the IC50 was found to be 710 nM. Then `Cc1cc(C)n(-c2cc(Nc3nn(C)c(-c4cccc(C#N)c4)c3C)ncn2)n1` [Example 189, 3-(3-{[6-(3,5-dimethyl-1H-pyrazol-1-yl)pyrimidin-4-yl]amino}-1,4-dimethyl-1H-pyrazol-5-yl)benzonitrile], with 74 nM; and `CCc1c(Nc2cc(-n3nc(C)c(C(C)(C)O)c3C(F)F)ncn2)nn(C)c1-c1ccc(F)cc1` [Example 190, 2-[5-(difluoromethyl)-1-(6-{[4-ethyl-5-(4-fluorophenyl)-1-methyl-1H-pyrazol-3-yl]amino}pyrimidin-4-yl)-3-methyl-1H-pyrazol-4-yl]propan-2-ol], with 210 nM; and `CCc1c(Nc2cc(-n3nc(C)c(Br)c3C)ncn2)nn(C)c1-c1ccc(F)cc1` [Example 191, 6-(4-bromo-3,5-dimethyl-1H-pyrazol-1-yl)-N-[4-ethyl-5-(4-fluorophenyl)-1-methyl-1H-pyrazol-3-yl]pyrimidin-4-amine], with 3 nM. In the case of `Cc1nn(-c2cc(Nc3c(C)c(-c4ccc(C#N)cc4)nn3CC3CC3)ncn2)c(C(F)F)c1C(=O)OC(C)(C)C` [Example 192, tert-butyl 1-(6-{[3-(4-cyanophenyl)-1-(cyclopropylmethyl)-4-methyl-1H-pyrazol-5-yl]amino}pyrimidin-4-yl)-5-(difluoromethyl)-3-methyl-1H-pyrazole-4-carboxylate], inhibition was half-maximal at 16 nM (IC50). Then `CCc1c(-c2ccc(F)cc2)nn(CC2CC2)c1Nc1cc(-n2nc(C)c(C(=O)OC(C)(C)C)c2C(F)F)ncn1` [Example 193, tert-butyl 1-(6-{[1-(cyclopropylmethyl)-4-ethyl-3-(4-fluorophenyl)-1H-pyrazol-5-yl]amino}pyrimidin-4-yl)-5-(difluoromethyl)-3-methyl-1H-pyrazole-4-carboxylate], with 51 nM; and `Cc1cc(C)n(-c2cc(Nc3nn(C)c(-c4ccc(F)cc4)c3CN3CCCC3)ncn2)n1` [Example 194, 6-(3,5-dimethyl-1H-pyrazol-1-yl)-N-[5-(4-fluorophenyl)-1-methyl-4-(pyrrolidin-1-ylmethyl)-1H-pyrazol-3-yl]pyrimidin-4-amine], with 1300 nM. The result for `CCc1c(Nc2cc(-n3nc(C)c(Cl)c3C(C)(C)O)ncn2)nn(C)c1-c1ccc(F)cc1` [Example 195, 2-[4-chloro-1-(6-{[4-ethyl-5-(4-fluorophenyl)-1-methyl-1H-pyrazol-3-yl]amino}pyrimidin-4-yl)-3-methyl-1H-pyrazol-5-yl]propan-2-ol] reads 3 nM. With `Cc1nn(-c2cc(Nc3nn(C)c(-c4ccc(C#N)cc4)c3C)ncn2)c(C)c1Cl` [Example 196, 4-(3-{[6-(4-chloro-3,5-dimethyl-1H-pyrazol-1-yl)pyrimidin-4-yl]amino}-1,4-dimethyl-1H-pyrazol-5-yl)benzonitrile], half-maximal inhibition (IC50) required 2 nM. Then `Cc1cc(C)n(-c2cc(Nc3c(C)c(-c4ccc(C#N)cc4)nn3C)ncn2)n1` [Example 197, 4-(5-{[6-(3,5-dimethyl-1H-pyrazol-1-yl)pyrimidin-4-yl]amino}-1,4-dimethyl-1H-pyrazol-3-yl)benzonitrile], with 28 nM; and `Cc1cc(C)n(-c2cc(Nc3c(C)c(-c4ccc(C#N)cc4)nn3CCC3CC3)ncn2)n1` [Example 198, 4-[1-(2-cyclopropylethyl)-5-{[6-(3,5-dimethyl-1H-pyrazol-1-yl)pyrimidin-4-yl]amino}-4-methyl-1H-pyrazol-3-yl]benzonitrile], with 12 nM.

The molecule `Cc1cc(C)n(-c2cc(Nc3c(C)nn(-c4ccc(C#N)cc4)c3C)ncn2)n1` [Example 199, 4-(4-{[6-(3,5-dimethyl-1H-pyrazol-1-yl)pyrimidin-4-yl]amino}-3,5-dimethyl-1H-pyrazol-1-yl)benzonitrile] gave an IC50 of 36 nM. In the case of `Cc1nn(-c2cc(Nc3c(C)nn(-c4ccc(C#N)cc4)c3C)ncn2)c(C(F)F)c1Cl` [Example 200, 4-[4-({6-[4-chloro-5-(difluoromethyl)-3-methyl-1H-pyrazol-1-yl]pyrimidin-4-yl}amino)-3,5-dimethyl-1H-pyrazol-1-yl]benzonitrile], the half-maximal inhibitory concentration (IC50) was determined as 8 nM. The result for `Cc1nn(-c2cc(Nc3c(C)c(-c4ccc(C#N)cc4)nn3C)ncn2)c(C)c1Cl` [Example 201, 4-(5-{[6-(4-chloro-3,5-dimethyl-1H-pyrazol-1-yl)pyrimidin-4-yl]amino}-1,4-dimethyl-1H-pyrazol-3-yl)benzonitrile] reads 6 nM; that for `CCc1c(-c2ccc(C#N)cc2)nn(CC2CC2)c1Nc1cc(-n2nc(C)c(C(C)=O)c2C)ncn1` [Example 202, 4-[5-{[6-(4-acetyl-3,5-dimethyl-1H-pyrazol-1-yl)pyrimidin-4-yl]amino}-1-(cyclopropylmethyl)-4-ethyl-1H-pyrazol-3-yl]benzonitrile], 13 nM.

`CCc1c(-c2ccc(C#N)cc2)nn(CC2CC2)c1Nc1cc(-n2nc(C)c3ccncc32)ncn1` [Example 203, 4-[1-(cyclopropylmethyl)-4-ethyl-5-{[6-(3-methyl-1H-pyrazolo[3,4-c]pyridin-1-yl)pyrimidin-4-yl]amino}-1H-pyrazol-3-yl]benzonitrile]: half-maximal inhibition (IC50) was put at 1400 nM. `Cc1c(-c2ccc(F)cc2)nn(CC2CC2)c1Nc1cc(-n2nc(C)c3ccncc32)ncn1` [Example 204, N-[1-(cyclopropylmethyl)-3-(4-fluorophenyl)-4-methyl-1H-pyrazol-5-yl]-6-(3-methyl-1H-pyrazolo[3,4-c]pyridin-1-yl)pyrimidin-4-amine]: the midpoint of inhibition, the IC50, lay at 3 nM. Then `CCc1c(-c2ccc(F)cc2)nn(CC2CC2)c1Nc1cc(-n2nc(C)c3ccncc32)ncn1` [Example 205, N-[1-(cyclopropylmethyl)-4-ethyl-3-(4-fluorophenyl)-1H-pyrazol-5-yl]-6-(3-methyl-1H-pyrazolo[3,4-c]pyridin-1-yl)pyrimidin-4-amine], with 20 nM. The result for `CCc1c(-c2ccc(F)cc2)nn(C)c1Nc1cc(-n2nc(C)c3ccncc32)ncn1` [Example 206, N-[4-ethyl-3-(4-fluorophenyl)-1-methyl-1H-pyrazol-5-yl]-6-(3-methyl-1H-pyrazolo[3,4-c]pyridin-1-yl)pyrimidin-4-amine] reads 9 nM; that for `Cc1nn(-c2cc(Nc3nn(CC4CC4)c(-c4ccc(F)cc4)c3Cl)ncn2)c2cnccc12` [Example 207, N-[4-chloro-1-(cyclopropylmethyl)-5-(4-fluorophenyl)-1H-pyrazol-3-yl]-6-(3-methyl-1H-pyrazolo[3,4-c]pyridin-1-yl)pyrimidin-4-amine], 18 nM; that for `Cc1nn(-c2cc(Nc3c(C)nn(-c4ccc(C#N)cc4)c3C)ncn2)c(C)c1Cl` [Example 208, 4-(4-{[6-(4-chloro-3,5-dimethyl-1H-pyrazol-1-yl)pyrimidin-4-yl]amino}-3,5-dimethyl-1H-pyrazol-1-yl)benzonitrile], 465 nM. Then `CCc1c(-c2ccc(C#N)cc2)nn(C)c1Nc1cc(-n2nc(C)cc2C)ncn1` [Example 209, 4-(5-{[6-(3,5-dimethyl-1H-pyrazol-1-yl)pyrimidin-4-yl]amino}-4-ethyl-1-methyl-1H-pyrazol-3-yl)benzonitrile], with 18 nM; and `CCc1c(Nc2cc(-n3nc(C)cc3C)ncn2)nn(C)c1-c1ccc(C#N)cc1` [Example 210, 4-(3-{[6-(3,5-dimethyl-1H-pyrazol-1-yl)pyrimidin-4-yl]amino}-4-ethyl-1-methyl-1H-pyrazol-5-yl)benzonitrile], with 13 nM.

In turn, `Cc1nn(-c2cc(Nc3c(C)c(-c4ccc(C#N)cc4)nn3C)ncn2)c2c1C(=O)CC2` [Example 211, 4-(1,4-dimethyl-5-{[6-(3-methyl-4-oxo-5,6-dihydrocyclopenta[c]pyrazol-1(4H)-yl)pyrimidin-4-yl]amino}-1H-pyrazol-3-yl)benzonitrile] gave an IC50 of 200 nM.

For the molecule `Cc1cc(C)n(-c2cc(Nc3nn(CCC4CC4)c(-c4ccc(C#N)cc4)c3C)ncn2)n1` [Example 212, 4-[1-(2-cyclopropylethyl)-3-{[6-(3,5-dimethyl-1H-pyrazol-1-yl)pyrimidin-4-yl]amino}-4-methyl-1H-pyrazol-5-yl]benzonitrile], half-maximal inhibition (IC50) was put at 1170 nM. Then `CCOC(=O)c1c(C)nn(-c2cc(Nc3c(C)c(-c4ccc(C#N)cc4)nn3C)ncn2)c1C` [Example 213, ethyl 1-(6-{[3-(4-cyanophenyl)-1,4-dimethyl-1H-pyrazol-5-yl]amino}pyrimidin-4-yl)-3,5-dimethyl-1H-pyrazole-4-carboxylate], with 2 nM.
